Legend:
[1] = according to the literature (Lauffer R. B. (1990) Magn. Reson. Quart. 2, 65-84); cited from earlier work
[2] = Relaxivity measurement (Bruker Minispec 120, 0.5 T, 39° C.); format: physicochemical; conditions: on a per gadolinium basis
Experimental: For some Gd-containing products the relaxivity r1 was measured using a Bruker Minispec 120, at 0.5 T and 39° C.

| Molecule | Relaxivity r1 ([2]; 0.5 T and 39° C.) | other results |
| --- | --- | --- |
| O=C([O-])CN1CCN(CC(=O)[O-])CCN(CC(=O)O)CCN(CC(=O)[O-])CC1.[Gd+3] [Gd-DOTA] |  | r1 value [1]: 3.4 mM⁻¹ s⁻¹ |
| Gadolinium Complex of N^□,N^ε,N^ε(a)-Tris-[4-aza-5-oxo-6-(1,4,7,10-tetraazacyclododecol-4,7,10-triacetate)hexyl]-L-lysine [Example 4] | 5.25 s⁻¹ mM⁻¹ |  |
| O=C(O)CN1CCN(CC(=O)O)CCN(CC(=O)NCCCN(CCCC[C@H](NC(=O)OCc2ccccc2)C(=O)O)CCCNC(=O)CN2CCN(CC(=O)O)CCN(CC(=O)O)CCN(CC(=O)O)CC2)CCN(CC(=O)O)CC1 [Example 6, N^α-Carbobenzyloxy-N^ε,N^ε-bis-[4-aza-5-oxo-6-(1,4,7,10-tetraazacyclododecyl-4,7,10-triacetate)hexyl]-L-lysine] |  | Relaxivity r1 [2]: 8.35 s⁻¹ mM⁻¹ |
| Gadolinium Complex of N^□,N^□,N^ε,N^ε-Tetrakis-[4-aza-5-oxo-6-(1,4,7,10-tetraazacyclododecyl-4,7,10-triacetate)hexyl]-L-lysine [Example 5] | 8.35 s⁻¹ mM⁻¹ |  |
| Example 9: Conjugate of gadolinium complex compound (IVa) with horse heart myoglobin; Gd content 27.9 mol/mol protein (conjugate, UniProt P68082 2-154, looked up, gadolinium complex IVa conjugate, Conjugate of gadolinium complex compound (IVa) with horse heart myoglobin; Gd content 27.9 mol/mol protein) Myoglobin: GLSDGEWQQVLNVWGKVEADIAGHGQEVLIRLFTGHPETLEKFDKFKHLKTEAEMKASEDLKKHGTVVLTALGGILKKKGHHEAELKPLAQSHATKHKIPIKYLEFISDAIIHVLHSKHPGDFGADAQGAMTKALELFRNDIAAKYKELGFQG | 19 s⁻¹ mM⁻¹ |  |
